Measurements from ChEMBL document CHEMBL4229545, “Oximes short-acting CB1 receptor agonists” (Bioorg Med Chem, 2018).
The source made the active and inactive calls. No cut-off for these calls is given here.

Assays:
Cannabinoid receptor 1 [1] = target: T1, Cannabinoid receptor 1 (Rattus norvegicus, UniProt P20272); assay: Displacement of [3H]CP-55,940 from rat brain Cb1 receptor
Cannabinoid receptor 2 [2] = target: T2, Cannabinoid receptor 2 (Homo sapiens, UniProt P34972); assay: Displacement of [3H]CP-55,940 from recombinant human Cb2 receptor expressed in HEK293 cells; assay type: cell-based
T2 sequence (P34972 whole entry): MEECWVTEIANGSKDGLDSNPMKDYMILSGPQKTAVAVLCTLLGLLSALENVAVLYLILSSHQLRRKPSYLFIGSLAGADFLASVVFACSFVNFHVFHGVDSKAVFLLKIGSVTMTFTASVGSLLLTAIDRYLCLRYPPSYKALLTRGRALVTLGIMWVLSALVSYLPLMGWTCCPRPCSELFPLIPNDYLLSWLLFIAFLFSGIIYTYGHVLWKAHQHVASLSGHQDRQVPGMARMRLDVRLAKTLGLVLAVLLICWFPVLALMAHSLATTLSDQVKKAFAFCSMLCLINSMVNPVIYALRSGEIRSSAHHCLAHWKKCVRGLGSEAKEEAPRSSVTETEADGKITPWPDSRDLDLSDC

Cannabinoid receptor 2 [3] = target: Cannabinoid receptor 2 (Mus musculus, UniProt P47936); assay: Displacement of [3H]CP-55,940 from recombinant mouse Cb2 receptor expressed in HEK293 cells; assay type: cell-based
Cannabinoid receptor 2 (Mus musculus, UniProt P47936), sequence (P47936 whole entry): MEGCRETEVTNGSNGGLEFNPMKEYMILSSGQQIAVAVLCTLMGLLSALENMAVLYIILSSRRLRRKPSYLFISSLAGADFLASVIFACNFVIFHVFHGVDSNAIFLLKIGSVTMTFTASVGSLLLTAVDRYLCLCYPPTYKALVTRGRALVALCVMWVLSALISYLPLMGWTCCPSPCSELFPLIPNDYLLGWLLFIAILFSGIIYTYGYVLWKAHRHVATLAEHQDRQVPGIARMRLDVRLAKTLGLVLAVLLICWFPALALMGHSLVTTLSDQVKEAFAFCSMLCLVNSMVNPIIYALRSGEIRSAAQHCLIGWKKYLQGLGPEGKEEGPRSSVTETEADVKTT

Cannabinoid receptor 1 [4] = target: T1, Cannabinoid receptor 1; assay: Agonist activity at recombinant rat Cb1 receptor expressed in HEK293 cells assessed as inhibition of forskolin-stimulated cAMP levels; assay type: functional, cell-based
Cannabinoid receptor 2 [5] = target: T2, Cannabinoid receptor 2; assay: Agonist activity at recombinant human Cb2 receptor expressed in HEK293 cells assessed as inhibition of forskolin-stimulated cAMP levels; assay type: functional, cell-based; conditions: read-out: EC50
[6] = target: Cannabinoid receptor 1 (Rattus norvegicus) (UniProt P20272); assay: Agonist activity at recombinant rat Cb1 receptor expressed in HEK293 cells assessed as inhibition of forskolin-stimulated cAMP levels relative to control; assay type: functional, cell-based
Cannabinoid receptor 1 (Rattus norvegicus), sequence (P20272 whole entry): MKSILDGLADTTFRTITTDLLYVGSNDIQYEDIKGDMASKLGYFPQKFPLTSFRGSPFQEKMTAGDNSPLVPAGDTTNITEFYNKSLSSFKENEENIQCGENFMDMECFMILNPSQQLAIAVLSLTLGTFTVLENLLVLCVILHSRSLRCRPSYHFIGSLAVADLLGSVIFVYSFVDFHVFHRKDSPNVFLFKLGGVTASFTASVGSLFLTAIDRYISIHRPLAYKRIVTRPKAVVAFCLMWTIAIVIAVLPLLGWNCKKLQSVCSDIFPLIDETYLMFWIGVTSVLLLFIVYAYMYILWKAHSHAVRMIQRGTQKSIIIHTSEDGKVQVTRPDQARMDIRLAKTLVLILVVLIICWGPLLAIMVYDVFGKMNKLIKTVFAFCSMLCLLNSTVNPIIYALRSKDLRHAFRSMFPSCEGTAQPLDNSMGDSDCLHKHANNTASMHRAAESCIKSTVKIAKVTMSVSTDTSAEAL

Cannabinoid receptor 2 [7] = target: T2, Cannabinoid receptor 2; assay: Agonist activity at recombinant human Cb2 receptor expressed in HEK293 cells assessed as inhibition of forskolin-stimulated cAMP levels relative to CP-55940; assay type: functional, cell-based
[8] = AUC in CD1 mouse plasma at 10 mg/kg, po; assay type: ADME, organism-based
[9] = target: Cannabinoid receptor 1 (Rattus norvegicus) (UniProt P20272); assay: Displacement of [3H]CP-55,940 from rat brain Cb1 receptor expressed in HEK293 cells at 10 times Ki measured after 1 hr relative to control; assay type: cell-based
[10] = target: Cannabinoid receptor 1 (Rattus norvegicus) (UniProt P20272); assay: Displacement of [3H]CP-55,940 from rat brain Cb1 receptor expressed in HEK293 cells at 10 times Ki incubated for 1 hr followed by 5 times membrane washout; assay type: cell-based
[11] = Half life in human plasma; assay type: ADME, cell-free
[12] = Half life in rat plasma; assay type: ADME, cell-free
[13] = Half life in mouse plasma; assay type: ADME, cell-free
[14] = Half life in human liver microsomes; assay type: ADME, microsome
[15] = Half life in rat liver microsomes; assay type: ADME, microsome
[16] = Half life in mouse liver microsomes; assay type: ADME, microsome
[17] = Half life in simulated gastric fluid; assay type: ADME
[18] = Volume of distribution in CD1 mouse at 2 mg/kg, iv; assay type: ADME, organism-based; conditions: in vivo
Mus musculus [19] = assay: Volume of distribution in CD1 mouse at 10 mg/kg, po; assay type: ADME, organism-based; conditions: in vivo
[20] = AUC in CD1 mouse at 2 mg/kg, iv; assay type: ADME, organism-based; conditions: in vivo
[21] = AUC in CD1 mouse at 10 mg/kg, po; assay type: ADME, organism-based; conditions: in vivo
[22] = Half life in CD1 mouse at 2 mg/kg, iv; assay type: ADME, organism-based; conditions: in vivo
[23] = Half life in CD1 mouse at 10 mg/kg, po; assay type: ADME, organism-based; conditions: in vivo
[24] = Tmax in CD1 mouse at 10 mg/kg, po; assay type: ADME, organism-based; conditions: in vivo
[25] = AUC in CD1 mouse plasma at 2 mg/kg, iv; assay type: ADME, organism-based
[26] = AUC in CD1 mouse brain at 2 mg/kg, iv; assay type: ADME, organism-based
[27] = AUC in CD1 mouse spleen at 2 mg/kg, iv; assay type: ADME, organism-based
[28] = AUC in CD1 mouse kidney at 2 mg/kg, iv; assay type: ADME, organism-based
[29] = AUC in CD1 mouse liver at 2 mg/kg, iv; assay type: ADME, organism-based
[30] = AUC in CD1 mouse fat at 2 mg/kg, iv; assay type: ADME, organism-based, Adipose tissue
[31] = Ratio of AUC in plasma to urine of CD1 mouse at 10 mg/kg, po; assay type: ADME, organism-based; conditions: in vivo
[32] = Ratio of AUC in plasma to brain of CD1 mouse at 2 mg/kg, iv; assay type: ADME, organism-based; conditions: in vivo
[33] = Ratio of AUC in plasma to spleen of CD1 mouse at 2 mg/kg, iv; assay type: ADME, organism-based; conditions: in vivo
[34] = Ratio of AUC in plasma to kidney of CD1 mouse at 2 mg/kg, iv; assay type: ADME, organism-based; conditions: in vivo
[35] = Ratio of AUC in plasma to liver of CD1 mouse at 2 mg/kg, iv; assay type: ADME, organism-based; conditions: in vivo
[36] = Ratio of AUC in plasma to fat of CD1 mouse at 2 mg/kg, iv; assay type: ADME, organism-based, Adipose tissue/Plasma; conditions: in vivo
[37] = AUC in CD1 mouse brain at 10 mg/kg, po; assay type: ADME, organism-based
[38] = AUC in CD1 mouse spleen at 10 mg/kg, po; assay type: ADME, organism-based
[39] = AUC in CD1 mouse kidney at 10 mg/kg, po; assay type: ADME, organism-based
[40] = AUC in CD1 mouse liver at 10 mg/kg, po; assay type: ADME, organism-based
[41] = AUC in CD1 mouse fat at 10 mg/kg, po; assay type: ADME, organism-based, Adipose tissue
[42] = AUC in CD1 mouse urine at 10 mg/kg, po; assay type: ADME, organism-based
[43] = Ratio of AUC in plasma to brain of CD1 mouse at 10 mg/kg, po; assay type: ADME, organism-based; conditions: in vivo
[44] = Ratio of AUC in plasma to spleen of CD1 mouse at 10 mg/kg, po; assay type: ADME, organism-based; conditions: in vivo
[45] = Ratio of AUC in plasma to kidney of CD1 mouse at 10 mg/kg, po; assay type: ADME, organism-based; conditions: in vivo
[46] = Ratio of AUC in plasma to liver of CD1 mouse at 10 mg/kg, po; assay type: ADME, organism-based; conditions: in vivo
[47] = Ratio of AUC in plasma to fat of CD1 mouse at 10 mg/kg, po; assay type: ADME, organism-based, Adipose tissue/Plasma; conditions: in vivo
Rattus norvegicus [48] = assay: Induction of hypothermia in Sprague-Dawley rat assessed as decrease in body temperature at 1 to 10 mg/kg, ip measured after 180 to 360 mins; assay type: functional, organism-based
Rattus norvegicus [49] = assay: Induction of hypothermia in Sprague-Dawley rat assessed as decrease in body temperature at 1 mg/kg, ip measured after 3 to 6 hrs; assay type: functional, organism-based
Rattus norvegicus [50] = assay: Induction of hypothermia in Sprague-Dawley rat assessed as decrease in body temperature at 1 mg/kg, ip measured after 24 hrs; assay type: functional, organism-based
Mus musculus [51] = assay: Analgesic activity in ip dosed CD1 mouse model of thermal-induced nociception assessed as tail withdrawal latency measured after 20 mins by tail flick test; assay type: functional
Mus musculus [52] = assay: Analgesic activity in CD1 mouse model of thermal-induced nociception assessed as tail withdrawal latency at 1 mg/kg, ip measured after 180 to 360 mins by tail flick test; assay type: functional, organism-based
Rattus norvegicus [53] = species on record: Rattus norvegicus; conditions: Sprague-Dawley
Description: Induction of hypothermia in ip dosed Sprague-Dawley rat assessed as decrease in body temperature measured up to 180 mins

T1 sequence (P20272 whole entry): as above

CC1=CC[C@H]2[C@H](C1)c1c(O)cc(/C(C)=N/OCCN3CCCCC3)cc1OC2(C)C showed a Ki (Cannabinoid receptor 1 [1]) of 5.6 nM, a Ki (Cannabinoid receptor 2 [2]) of 2.5 nM and a Ki (Cannabinoid receptor 2 [3]) of 4.1 nM. For the same molecule, the EC50 (Cannabinoid receptor 1 [4]; read-out: EC50) was 12.7 nM, the EC50 (Cannabinoid receptor 2 [5]) was 65.7 nM and the Emax [6] was 31%. The Emax (Cannabinoid receptor 2 [7]) was 147%.
Work on CCCCO/N=C(\C)c1cc(O)c2c(c1)OC(C)(C)[C@H]1CC=C(C)C[C@H]21 yielded a Ki (Cannabinoid receptor 1 [1]) of 3.4 nM, a Ki (Cannabinoid receptor 2 [2]) of 16.9 nM and a Ki (Cannabinoid receptor 2 [3]) of 1.6 nM. For the same molecule, the EC50 (Cannabinoid receptor 1 [4]; read-out: EC50) was 0.58 nM, the EC50 (Cannabinoid receptor 2 [5]) was 9.14 nM and the Emax [6] was 51%. For the same molecule, the Emax (Cannabinoid receptor 2 [7]) was 116%.
Work on CCCCCCC(C)(C)c1ccc([C@@H]2C[C@H](O)CC[C@H]2CCCO)c(O)c1 yielded an Emax [6] of 70 to 85% and an Emax (Cannabinoid receptor 2 [7]) of 70 to 85%.
In the case of CCCCCCC(C)(C)c1cc(O)c2c(c1)OC(C)(C)[C@H]1CC=C(C)C[C@H]21, the Ki (Cannabinoid receptor 1 [1]) is reported as 0.77 nM, the Ki (Cannabinoid receptor 2 [2]) is reported as 9 nM and the Ki (Cannabinoid receptor 2 [3]) is reported as 3.2 nM.
Molecule CCCC(C)O/N=C(\C)c1cc(O)c2c(c1)OC(C)(C)[C@H]1CC=C(C)C[C@H]21 (mixture of isomers) has a Ki (Cannabinoid receptor 1 [1]) of 2 nM, a Ki (Cannabinoid receptor 2 [2]) of 24 nM and a Ki (Cannabinoid receptor 2 [3]) of 43.6 nM. It also gave an EC50 (Cannabinoid receptor 1 [4]; read-out: EC50) of 22.4 nM, an EC50 (Cannabinoid receptor 2 [5]) of 41.3 nM and an Emax [6] of 48%. It also gave an Emax (Cannabinoid receptor 2 [7]) of 411%.
Work on CCCC(C)O/N=C(/C)c1cc(O)c2c(c1)OC(C)(C)[C@H]1CC=C(C)C[C@H]21 (mixture of isomers) yielded a Ki (Cannabinoid receptor 1 [1]) of 0.5 nM, a Ki (Cannabinoid receptor 2 [2]) of 6.1 nM and a Ki (Cannabinoid receptor 2 [3]) of 1.9 nM. For the same molecule, the EC50 (Cannabinoid receptor 1 [4]; hek293) was “Not Active”, the EC50 (Cannabinoid receptor 2 [5]) was 11.5 nM and the Emax (Cannabinoid receptor 2 [7]) was 260%.
Molecule CC1=CC[C@H]2[C@H](C1)c1c(O)cc(/C(C)=N\OCCCC#N)cc1OC2(C)C has a Ki (Cannabinoid receptor 1 [1]) of 0.3 nM, a Ki (Cannabinoid receptor 2 [2]) of 0.4 nM and a Ki (Cannabinoid receptor 2 [3]) of 0.1 nM. The EC50 (Cannabinoid receptor 1 [4]; hek293) was “Not Active”, the EC50 (Cannabinoid receptor 2 [5]) was 2 nM and the Emax (Cannabinoid receptor 2 [7]) was 35%.
Molecule CC1=CC[C@H]2[C@H](C1)c1c(O)cc(/C(C)=N/OCCN3CCOCC3)cc1OC2(C)C has a Ki (Cannabinoid receptor 1 [1]) of 7 nM, a Ki (Cannabinoid receptor 2 [2]) of 0.7 nM and a Ki (Cannabinoid receptor 2 [3]) of 1.8 nM.
For CC1=CC[C@H]2[C@H](C1)c1c(O)cc(/C(C)=N/OCCCC#N)cc1OC2(C)C, the AUC [8] was 124 ng·h/mL, the Ki (Cannabinoid receptor 1 [1]) was 0.9 nM and the Ki (Cannabinoid receptor 2 [2]) was 1.3 nM. For the same molecule, the Ki (Cannabinoid receptor 2 [3]) was 2.6 nM, the EC50 (Cannabinoid receptor 1 [4]; read-out: EC50) was 4.4 nM and the EC50 (Cannabinoid receptor 2 [5]) was 12 nM. For the same molecule, the Emax [6] was 51%, the Emax (Cannabinoid receptor 2 [7]) was 47% and the inhibition [9] was 44%. For the same molecule, the inhibition [10] was 23%, the half-life [11] was > 60 min and the half-life [12] was > 60 min. For the same molecule, the half-life [13] was > 60 min, the half-life [14] was 9 min and the half-life [15] was 12 min. For the same molecule, the half-life [16] was 13 min, the half-life [17] was > 60 min and the Vd [18] was 2.16 L/kg. It also gave a Vd (Mus musculus [19]) of 68.042 L/kg, an AUC [20] of 1060 ng·h/mL and an AUC [21] of 1240 ng·h/mL. The half-life [22] was 47.3 min, the half-life [23] was 35.2 min and the Tmax [24] was 60 min. The AUC [25] was 900 ng·h/mL, the AUC [26] was 443 ng·h/mL and the AUC [27] was 957 ng·h/mL. For the same molecule, the AUC [28] was 890 ng·h/mL, the AUC [29] was 580 ng·h/mL and the AUC [30] was 5390 ng·h/mL. For the same molecule, the “Ratio AUC” value [31] was 0.09, the “Ratio AUC” value [32] was 0.49 and the “Ratio AUC” value [33] was 1.06. For the same molecule, the “Ratio AUC” value [34] was 0.99, the “Ratio AUC” value [35] was 0.64 and the “Ratio AUC” value [36] was 5.98. It also gave an AUC [37] of 154 ng·h/mL, an AUC [38] of 107 ng·h/mL and an AUC [39] of 257 ng·h/mL. For the same molecule, the AUC [40] was 308 ng·h/mL, the AUC [41] was 710 ng·h/mL and the AUC [42] was 11.3 ng·h/mL. For the same molecule, the “Ratio AUC” value [43] was 1.24, the “Ratio AUC” value [44] was 0.86 and the “Ratio AUC” value [45] was 2.06. For the same molecule, the “Ratio AUC” value [46] was 2.48, the “Ratio AUC” value [47] was 5.72 and the Activity (Rattus norvegicus [48]) was “inactive”. For the same molecule, the Activity (Rattus norvegicus [49]) was “Active”, the Activity (Rattus norvegicus [50]) was “inactive” and the Activity (Mus musculus [51]) was “Dose-dependent effect”. The ED50 (Mus musculus [51]) was 1.42 mg/kg, the Activity (Mus musculus [52]) was “Active” and the deltaT (Rattus norvegicus [53]) was 4.5 to 7.7 °C.
